Numbered stars: 1 amine (or outer) side, 2 acyl side, 3 side chain; on linkers, the order of the positions; unused ones are H or OH. Square brackets hold non-standard residues; d marks the D form. Peptide text beside a SMILES is read from it. * marks the point of attachment. 5FAM = O=C1OC2(c3ccc(O)cc3Oc3cc(O)ccc32)c2ccc(C(=O)*)cc21; NHCH2C6H4(4-CH2CONH2) = NC(=O)Cc1ccc(CN*)cc1; X1 = O=C(Cc1ccc(CN[*:1])cc1)[*:2]
Tests used:
[1] = molecular target: T1, ASGPR (Homo sapiens, UniProt P07306); assay: MST binding affinity of resynthesized NNP hits to ASGPR; settings: read-out: KD (nM) [95% conf. int]; MST; NNP1 library hit; target ASGPR; one-site binding model
T1 construct: purchased R&D Systems, Inc. 4394-AS
T1 sequence (P07306 1-291): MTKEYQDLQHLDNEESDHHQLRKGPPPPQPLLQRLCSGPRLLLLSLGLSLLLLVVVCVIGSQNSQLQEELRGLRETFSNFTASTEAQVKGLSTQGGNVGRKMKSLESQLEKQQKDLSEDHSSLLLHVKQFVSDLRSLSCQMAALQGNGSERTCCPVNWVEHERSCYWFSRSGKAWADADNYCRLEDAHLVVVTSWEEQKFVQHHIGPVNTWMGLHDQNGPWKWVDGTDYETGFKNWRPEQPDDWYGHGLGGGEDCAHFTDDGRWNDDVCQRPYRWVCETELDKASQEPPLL
Protocol: (§1) Hit binding affinity to various targets were determined using Microscale Thermophoresis (MST). MST experiments were performed on a Monolith NT.115pico (NanoTemper Technologies GmbH, Munich, Germany). Measurements were performed at room temperature, in triplicate with incubation periods of 15, 30 and 45 minutes. […] Targets were labeled using Nanotemper Monolith 2nd Generation Protein Labeling Kits. RED-MALEIMIDE (Maleimide-647-dye) labeling kit was used for K-Ras and RED-NHS (NHS-647-dye) labeling kit was used for IL-6, IL-6R, TNFα and ASGPR. The buffer for the ASGPR contained 20 mM HEPES pH 7.4, 150 mM NaCl, 10 mM MgCl2, 2 mM CaCl2, 0.05% Pluronic F-127, and 1 mM DTT; for IL-6 contained 20 mM HEPES pH 7.4, 150 mM KCl, 10 mM MgCl2, and 0.1% Pluronic F-127; for the soluble IL-6 receptor 20 mM HEPES pH 7.4, 150 mM NaCl, 10 mM MgCl2, and 0.05% Tween-20; for K-Ras 20 mM HEPES pH 7.4, 150 mM NaCl, 10 mM MgCl2, 0.05% Tween-20 and 1 mM DTT; for TNFα 10 mM HEPES pH 7.4, 150 mM NaCl, 10 mM MgCl2, 0.05% Polysorbate-20. Triplicate data was analyzed using MO.AffinityAnalysis software (NanoTemper Technologies GmbH).

[2] = molecular target: T2, IL-6R (Homo sapiens, UniProt P08887); assay: MST binding affinity of resynthesized NNP hits to IL-6R; settings: read-out: MST (microscale thermophoresis) KD (nM) [95% conf. int]; IL-6R; ester versus amide amino acid-PAM bond polymers, library NNP2
T2 construct: purchased Creative Biomart IL6R-584H
T2 sequence (P08887 20-355 limits assumed): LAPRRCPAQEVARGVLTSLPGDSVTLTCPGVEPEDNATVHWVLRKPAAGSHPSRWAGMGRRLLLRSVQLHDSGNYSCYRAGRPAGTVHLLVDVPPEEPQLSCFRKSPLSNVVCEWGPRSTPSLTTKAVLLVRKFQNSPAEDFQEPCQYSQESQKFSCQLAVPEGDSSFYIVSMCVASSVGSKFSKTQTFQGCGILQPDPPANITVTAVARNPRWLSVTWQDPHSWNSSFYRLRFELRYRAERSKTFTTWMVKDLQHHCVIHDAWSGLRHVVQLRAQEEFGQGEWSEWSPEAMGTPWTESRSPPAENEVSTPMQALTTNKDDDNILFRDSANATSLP
Protocol: as §1

Row | Structure (SMILES) | Kd [1] [nM] | Kd [2] [nM]
1 | CC(C)C[C@H](NC(=O)[C@@H](CCCNC(=N)N)NC(=O)[C@@H](CCCCN)NC(=O)[C@@H](CCC(=O)O)NC(=O)[C@@H](Cc1ccccc1)NC(=O)Cc1ccc(CNC(=O)[C@H](Cc2ccccc2)NC(=O)[C@@H](CO)NC(=O)[C@@H](CCC(=O)O)NC(=O)[C@H]2CCCN2C(=O)[C@@H](CC(C)C)NC(=O)c2ccc3c(c2)C(=O)OC32c3ccc(O)cc3Oc3cc(O)ccc32)cc1)C(=O)NCc1ccc(CC(=O)NCC(=O)N2CCC[C@@H]2C(=O)N[C@H](CCCNC(=N)N)C(=O)N[C@H](CO)C(=O)N[C@@H](Cc2ccccc2)C(=O)NCc2ccc(CC(=O)N3CCC[C@@H]3C(=O)N[C@H](CCCCN)C(=O)N[C@H](Cc3ccc(O)cc3)C(=O)N[C@H](CCCNC(=N)N)C(=O)N[C@@H](Cc3ccccc3)C(=O)NCc3ccc(CC(=O)N[C@H](CCCNC(=N)N)C(=O)N[C@H](Cc4ccccc4)C(=O)N4CCC[C@@H]4C(=O)N[C@@H](C(=O)NCC(=O)NCc4ccc(CC(=O)N[C@H](CC(C)C)C(=O)N5CCC[C@@H]5C(=O)N[C@H](CCCNC(=N)N)C(=O)N[C@@H](C(=O)NCC(=O)NCc5ccc(CC(N)=O)cc5)[C@H](C)O)cc4)C(C)C)cc3)cc2)cc1 [ASGPR-9-3] (5FAM-[dL][dP][dE][dS]F[X1][dF][dE][dK][dR]L[X1]G[dP][dR][dS]F[X1][dP][dK][dY][dR]F[X1][dR][dF][dP][dV]G[X1][dL][dP][dR][dT]G-{NHCH2C6H4(4-CH2CONH2)}) | 330 | –
2 | CC(C)C[C@H](NC(=O)[C@@H](CCCNC(=N)N)NC(=O)[C@@H](CCCCN)NC(=O)[C@@H](CCC(=O)O)NC(=O)[C@@H](Cc1ccccc1)NC(=O)Cc1ccc(CNC(=O)[C@H](Cc2ccccc2)NC(=O)[C@@H](CO)NC(=O)[C@@H](CCC(=O)O)NC(=O)[C@H]2CCCN2C(=O)[C@@H](CC(C)C)NC(=O)c2ccc3c(c2)C(=O)OC32c3ccc(O)cc3Oc3cc(O)ccc32)cc1)C(=O)NCc1ccc(CC(=O)N[C@H](Cc2c[nH]cn2)C(=O)N[C@H](CO)C(=O)N2CCC[C@@H]2C(=O)N[C@H](CCCNC(=N)N)C(=O)N[C@H](C(=O)NCc2ccc(CC(=O)N3CCC[C@@H]3C(=O)N[C@H](CCCCN)C(=O)N[C@H](Cc3ccc(O)cc3)C(=O)N[C@H](CCCNC(=N)N)C(=O)N[C@@H](Cc3ccccc3)C(=O)NCc3ccc(CC(=O)N[C@H](CCCNC(=N)N)C(=O)N[C@H](Cc4ccccc4)C(=O)N4CCC[C@@H]4C(=O)N[C@@H](C(=O)NCC(=O)NCc4ccc(CC(=O)N[C@H](CC(C)C)C(=O)N5CCC[C@@H]5C(=O)N[C@H](CCCNC(=N)N)C(=O)N[C@@H](C(=O)NCC(=O)NCc5ccc(CC(N)=O)cc5)[C@H](C)O)cc4)C(C)C)cc3)cc2)C(C)C)cc1 [ASGPR-9-7] (5FAM-[dL][dP][dE][dS]F[X1][dF][dE][dK][dR]L[X1][dH][dS][dP][dR]V[X1][dP][dK][dY][dR]F[X1][dR][dF][dP][dV]G[X1][dL][dP][dR][dT]G-{NHCH2C6H4(4-CH2CONH2)}) | 150 | –
3 | CC(C)C[C@H](NC(=O)[C@@H](CCCNC(=N)N)NC(=O)[C@@H](C)NC(=O)Cc1ccc(COC(=O)[C@H](Cc2ccccc2)NC(=O)[C@@H](CCCNC(=N)N)NC(=O)[C@@H](CC(N)=O)NC(=O)Cc2ccc(COC(=O)[C@H](Cc3ccccc3)NC(=O)[C@@H](CCCCN)NC(=O)[C@@H](C)NC(=O)Cc3ccc(COC(=O)[C@H](CC(C)C)NC(=O)[C@@H](CCC(=O)O)NC(=O)[C@@H](CCCCN)NC(=O)Cc4ccc(COC(=O)[C@@H](NC(=O)[C@@H](CCC(=O)O)NC(=O)[C@@H](Cc5ccccc5)NC(=O)Cc5ccc(COC(=O)[C@H](CC(C)C)NC(=O)[C@@H](CCCNC(=N)N)NC(=O)[C@@H](CC(C)C)NC(=O)Cc6ccc(COC(=O)[C@H](Cc7ccccc7)NC(=O)[C@@H](Cc7c[nH]c8ccccc78)NC(=O)[C@@H](CCCNC(=N)N)NC(=O)c7ccc8c(c7)C(=O)OC87c8ccc(O)cc8Oc8cc(O)ccc87)cc6)cc5)C(C)C)cc4)cc3)cc2)cc1)C(=O)OCc1ccc(CC(=O)N[C@H](Cc2c[nH]c3ccccc23)C(=O)N[C@H](CCCCN)C(=O)N[C@@H](CC(C)C)C(=O)OCc2ccc(CC(=O)N[C@H](C)C(=O)N[C@@H](C(=O)N[C@@H](CC(C)C)C(=O)OCc3ccc(CC(N)=O)cc3)C(C)C)cc2)cc1 [IL6R-93-13] | – | 130
